Reference: article PMC7948422, “Repurposing p97 inhibitors for chemical modulation of the bacterial ClpB–DnaK bichaperone system” (The Journal of Biological Chemistry, 2020)

How the values were obtained:
[1] = biological target: T1, DnaK–DnaJ–GrpE (KJE) (Escherichia coli, UniProt P0A6Y8); test: Aggregate reactivation assay with KJE alone; type: biochemical
T1 construct: full-length E. coli DnaK (residues 1–638); made in house; host or cells: E. coli BL21(DE3) for DnaK
Description: G6PDH was chemically denatured by mixing 5 μl of the G6PDH stock solution (441 μM) with 5 μl of buffer A (10 M urea, 16% glycerol, 40-mM DTT) preheated at 47 °C. The samples of G6PDH in buffer A were incubated for 5 min at 47 °C. Subsequently, 5 μl of denatured G6PDH was mixed with 95 μl of buffer B (50-mM Tris-HCl, pH 7.4, 20-mM Mg(OAc)2, 30-mM KCl, 1-mM EDTA, 1-mM β-mercaptoethanol) preheated at 47 °C to initiate protein refolding, which, under these conditions, is inefficient and leads to misfolding and aggregation of G6PDH ([69]). G6PDH aggregate production was arrested after 1 min (for refolding by KJE) or 15 min (for refolding by KJE with ClpB) by transferring into ice for 2 min. […] The plate was inserted into Synergy H1 plate reader (BioTek, Winooski, VT) with the chamber temperature at 30 °C, and the sample absorbance at 340 nm was measured after 10 min. The amount of NADPH produced was calculated based on the NADPH molar extinction coefficient, Ɛ340 = 6220 [M^−1 ⋅ cm^−1].
Firefly luciferase (220 μM) was diluted 300-fold in PBS buffer with 1 mg/ml bovine serum albumin and then incubated for 12 min at 45 °C. […] Luminescence was measured using Synergy H1 plate reader (BioTek, Winooski, VT).

[2] = system: ClpB W462F, W543F, W462F/W543F; test: Basal ATPase activity of ClpB Trp/Phe variants; type: biochemical, Escherichia coli; conditions: absence of casein
Description: To determine the ATPase activity, ClpB was diluted to 28 μg/ml (49-nM hexamer) in buffer C (50-mM Tris-HCl, pH 7.4, 20-mM MgCl2, 1-mM EDTA, 0.5-mM tris(2-carboxyethyl)phosphine [TCEP]). In some experiments, the ClpB solution was supplemented with 17.4 μg/ml (10 μM) κ-casein. The ClpB aliquots (18 μl) were mixed with 1 μl of the investigated compounds at different concentrations in 100% DMSO or with DMSO as a control. A sample without ClpB was used as a baseline control. After a 10-min preincubation at 37 or 45 °C, the ATP hydrolysis reaction was initiated by adding 1 μl of 100-mM ATP. The samples were incubated for 60 min (basal ClpB activity in the absence of κ-casein) or 15 min (in the presence of κ-casein) at 37 °C or 30 min at 45 °C in the absence of casein. For the E678Q ClpB variant, the incubation time in the presence of κ-casein was 60 min. After incubation, 15 μl of each sample was mixed with 200 μl of the ammonium molybdate/malachite green reagent ([67]) dispensed into a 96-well plate, followed by an addition of 30 μl of 34% sodium citrate ([68]). The plate was agitated inside a Synergy H1 reader (BioTek, Winooski, VT) for 15 min at room temperature, and the samples’ absorbance was measured at 630 nm. The readouts for ClpB-containing samples were corrected for absorbance of samples without ClpB, to account for nonenzymatic production of inorganic phosphate. […]

T1 sequence (P0A6Y8 whole entry, the tested form may be a part): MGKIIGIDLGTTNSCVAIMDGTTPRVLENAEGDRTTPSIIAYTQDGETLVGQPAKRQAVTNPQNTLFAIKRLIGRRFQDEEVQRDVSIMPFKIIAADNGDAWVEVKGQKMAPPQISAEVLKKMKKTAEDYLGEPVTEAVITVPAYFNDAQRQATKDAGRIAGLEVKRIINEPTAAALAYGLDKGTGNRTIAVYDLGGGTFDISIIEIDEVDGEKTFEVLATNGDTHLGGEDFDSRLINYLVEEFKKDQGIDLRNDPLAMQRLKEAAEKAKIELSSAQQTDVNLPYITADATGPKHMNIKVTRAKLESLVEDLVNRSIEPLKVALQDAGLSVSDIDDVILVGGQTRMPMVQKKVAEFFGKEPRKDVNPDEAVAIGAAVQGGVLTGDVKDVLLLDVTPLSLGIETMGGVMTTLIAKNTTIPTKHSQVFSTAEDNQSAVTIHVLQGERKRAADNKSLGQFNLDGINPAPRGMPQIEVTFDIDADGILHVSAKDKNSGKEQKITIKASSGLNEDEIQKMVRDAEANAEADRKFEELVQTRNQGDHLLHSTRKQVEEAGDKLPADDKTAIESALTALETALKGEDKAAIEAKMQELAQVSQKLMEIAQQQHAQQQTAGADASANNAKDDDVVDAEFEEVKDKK

Q: `c1ccc(CNc2nc(NCc3ccccc3)c3ccccc3n2)cc1` [DBeQ, N^2,N^4-dibenzylquinazoline-2,4-diamine] was tested. Which “inhibition of DnaK chaperone activity in vitro” value [1] did it give?
A: inhibited

Q: And the “inhibition of ClpB-independent reactivation of aggregated luciferase” value ([1]; KJE alone, 20 min, 25 °C)?
A: inhibited

Q: And the “inhibition of basal ATPase of Trp/Phe ClpB variants” value [2]?
A: became sensitive to inhibition
